Source: patent publication US20230085307A1, “PYRIDAZINONE COMPOUND AND HERBICIDE” (NISSAN CHEMICAL CORPORATION, priority 2019, published 2023)

Assays:
blackgrass = assay: Test Example 5: herbicidal effect by foliage application, plastic box (Table 20, symbol J); assay type: in vivo, blackgrass (Alopecurus myosuroides); details: 320 g/ha; for herbicidal effect on J: blackgrass (evaluation grade 0-5): foliage application after 14-day growth
How it was run: (§1)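 Sow seeds spot-wise in sterilized diluvial soil; cover with ~1.5 cm soil. Grow 14 days in greenhouse, 25° C. to 30° C. Spray foliage with emulsion diluted to predetermined amount. Rate effect after 3 weeks.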

barnyard grass [1] = assay: Test Example 3: herbicidal effect by foliage application, Wagner pot (Table 18, symbol H); assay type: in vivo, barnyard grass (Echinochloa crus-galli); details: for herbicidal effect on barnyard grass (H): 320 g/ha
How it was run: (§2)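 Plants were sown in alluvial soil held under 0.1–0.5 cm standing water and grown 14 days in a greenhouse at 25–30 °C. An emulsifiable formulation, water-diluted to the set dose, was then sprayed onto the foliage, and effects were scored three weeks later using previously defined criteria.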

Japanese bulrush = assay: Test Example 1: herbicidal activity, application before weed generation under submerged conditions (Table 16, symbol B); assay type: in vivo, Japanese bulrush (Schoenoplectus juncoides); details: for Herbicidal effect, B: Japanese bulrush: amount of applied herbicide 320 g/ha
How it was run: (§3)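 Submerged Wagner pots (alluvial soil, 4 cm water) sown with weed seeds and planted with 2.5-leaf rice seedlings; emulsifiable concentrate diluted in water applied to water surface on sowing day. Held in greenhouse at 25-30 °C; injury scored 0-5 by herbicidal rate after three weeks.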

barnyard grass [2] = assay: Test Example 5: herbicidal effect by foliage application, plastic box (Table 20, symbol H); assay type: in vivo, barnyard grass (Echinochloa crus-galli); details: 320 g/ha; for herbicidal effect on H: barnyard grass (evaluation grade 0-5): foliage application after 14-day growth
How it was run: as §1

oval-leafed pondweed = assay: Test Example 1: herbicidal activity, application before weed generation under submerged conditions (Table 16, symbol C); assay type: in vivo, oval-leafed pondweed (Monochoria vaginalis); details: for Herbicidal effect, C: oval-leafed pondweed: amount of applied herbicide 320 g/ha
How it was run: as §3

velvetleaf = assay: Test Example 5: herbicidal effect by foliage application, plastic box (Table 20, symbol M); assay type: in vivo, velvetleaf (Abutilon theophrasti); details: 320 g/ha; for herbicidal effect on M: velvetleaf (evaluation grade 0-5): foliage application after 14-day growth
How it was run: as §1

rice flat sedge = assay: Test Example 3: herbicidal effect by foliage application, Wagner pot (Table 18, symbol E); assay type: in vivo, rice flat sedge (Cyperus iria); details: for herbicidal effect on rice flat sedge (E): 320 g/ha
How it was run: as §2

lambsquarters = assay: Test Example 5: herbicidal effect by foliage application, plastic box (Table 20, symbol O); assay type: in vivo, lambsquarters (Chenopodium album); details: 320 g/ha; for herbicidal effect on O: lambsquarters (evaluation grade 0-5): foliage application after 14-day growth
How it was run: as §1

southern crabgrass = assay: Test Example 5: herbicidal effect by foliage application, plastic box (Table 20, symbol F); assay type: in vivo, southern crabgrass (Digitaria ciliaris); details: 320 g/ha; for herbicidal effect on F: southern crabgrass (evaluation grade 0-5): foliage application after 14-day growth
How it was run: as §1

wild oat = assay: Test Example 5: herbicidal effect by foliage application, plastic box (Table 20, symbol I); assay type: in vivo, wild oat (Avena fatua); details: 320 g/ha; for herbicidal effect on I: wild oat (evaluation grade 0-5): foliage application after 14-day growth
How it was run: as §1

Italian ryegrass = assay: Test Example 5: herbicidal effect by foliage application, plastic box (Table 20, symbol K); assay type: in vivo, Italian ryegrass (Lolium multiflorum); details: 320 g/ha; for herbicidal effect on K: Italian ryegrass (evaluation grade 0-5): foliage application after 14-day growth
How it was run: as §1

windgrass = assay: Test Example 5: herbicidal effect by foliage application, plastic box (Table 20, symbol L); assay type: in vivo, windgrass (Apera spica-venti); details: 320 g/ha; for herbicidal effect on L: windgrass (evaluation grade 0-5): foliage application after 14-day growth
How it was run: as §1

redroot pigweed = assay: Test Example 5: herbicidal effect by foliage application, plastic box (Table 20, symbol N); assay type: in vivo, redroot pigweed (Amaranthus retroflexus); details: 320 g/ha; for herbicidal effect on N: redroot pigweed (evaluation grade 0-5): foliage application after 14-day growth
How it was run: as §1

late watergrass = assay: Test Example 1: herbicidal activity, application before weed generation under submerged conditions (Table 16, symbol A); assay type: in vivo, late watergrass (Echinochloa oryzicola); details: for Herbicidal effect, A: late watergrass: amount of applied herbicide 320 g/ha
How it was run: as §3

Chinese sprangletop = assay: Test Example 3: herbicidal effect by foliage application, Wagner pot (Table 18, symbol D); assay type: in vivo, chinese sprangletop (Leptochloa chinensis); details: for herbicidal effect on Chinese sprangletop (D): 320 g/ha
How it was run: as §2

persian speedwell = assay: Test Example 5: herbicidal effect by foliage application, plastic box (Table 20, symbol R); assay type: in vivo, Persian speedwell (Veronica persica); details: 320 g/ha; for herbicidal effect on R: persian speedwell (evaluation grade 0-5): foliage application after 14-day growth
How it was run: as §1

chickweed = assay: Test Example 5: herbicidal effect by foliage application, plastic box (Table 20, symbol P); assay type: in vivo, common chickweed (Stellaria media); details: 320 g/ha; for herbicidal effect on P: chickweed (evaluation grade 0-5): foliage application after 14-day growth
How it was run: as §1

green foxtail = assay: Test Example 5: herbicidal effect by foliage application, plastic box (Table 20, symbol G); assay type: in vivo, green foxtail (Setaria viridis); details: 320 g/ha; for herbicidal effect on G: green foxtail (evaluation grade 0-5): foliage application after 14-day growth
How it was run: as §1

[3] = foliage application, evaluated three weeks after application
[4] = amount of applied herbicide 320 g/ha
[5] = foliage application, three weeks after application
[6] = evaluated three weeks after application

COc1ccc(Br)cc1-c1sc2ccc(Br)cc2c1-c1c(O)c(C)nn(C)c1=O [2-129]
herbicidal effect on J: blackgrass (blackgrass; [3]): 0 (Herbicidal rate of 5% or less (almost no effect))
herbicidal effect on H: barnyard grass (barnyard grass [1]; [4]): 3 (Herbicidal rate of 40% or more and less than 70%)
Herbicidal effect on B: Japanese bulrush (grade 0-5) (Japanese bulrush; 320 g/ha applied herbicide): 0 (Herbicidal rate of 5% or less (almost no effect))
herbicidal effect on H: barnyard grass (barnyard grass [2]; [3]): 0 (Herbicidal rate of 5% or less (almost no effect))
Herbicidal effect on C: oval-leafed pondweed (grade 0-5) (oval-leafed pondweed; 320 g/ha applied herbicide): 0 (Herbicidal rate of 5% or less (almost no effect))
herbicidal effect on M: velvetleaf (velvetleaf; [3]): 0 (Herbicidal rate of 5% or less (almost no effect))
herbicidal effect on E: rice flat sedge (rice flat sedge; [4]): 0 (Herbicidal rate of 5% or less (almost no effect))
herbicidal effect on O: lambsquarters (lambsquarters; [3]): 2 (Herbicidal rate of 20% or more and less than 40%)
herbicidal effect on F: southern crabgrass (southern crabgrass; [3]): 0 (Herbicidal rate of 5% or less (almost no effect))
herbicidal effect on I: wild oat (wild oat; [3]): 0 (Herbicidal rate of 5% or less (almost no effect))
herbicidal effect on K: Italian ryegrass (Italian ryegrass; [3]): 0 (Herbicidal rate of 5% or less (almost no effect))
herbicidal effect on L: windgrass (windgrass; [3]): 0 (Herbicidal rate of 5% or less (almost no effect))
herbicidal effect on N: redroot pigweed (redroot pigweed; [3]): 0 (Herbicidal rate of 5% or less (almost no effect))
Herbicidal effect on A: late watergrass (grade 0-5) (late watergrass; 320 g/ha applied herbicide): 5 (Herbicidal rate of 90% or more (almost completely withered))
herbicidal effect on D: Chinese sprangletop (Chinese sprangletop; [4]): 0 (Herbicidal rate of 5% or less (almost no effect))
herbicidal effect on R: persian speedwell (persian speedwell; [3]): 0 (Herbicidal rate of 5% or less (almost no effect))
herbicidal effect on P: chickweed (chickweed; [3]): 0 (Herbicidal rate of 5% or less (almost no effect))
herbicidal effect on G: green foxtail (green foxtail; [3]): 0 (Herbicidal rate of 5% or less (almost no effect))

COc1ccccc1-c1sc2cc(CO)ccc2c1-c1c(O)c(C)nn(C)c1=O [3-135]
J: blackgrass, herbicidal effect grade (blackgrass; [5]): 3 (Herbicidal rate of 40% or more and less than 70%)
herbicidal effect on barnyard grass (H) (barnyard grass [1]): 4 (Herbicidal rate of 70% or more and less than 90%)
Herbicidal effect, B: Japanese bulrush (Japanese bulrush): 2 (Herbicidal rate of 20% or more and less than 40%)
H: barnyard grass, herbicidal effect grade (barnyard grass [2]; [5]): 3 (Herbicidal rate of 40% or more and less than 70%)
Herbicidal effect, C: oval-leafed pondweed (oval-leafed pondweed): 0 (Herbicidal rate of 5% or less (almost no effect))
M: velvetleaf, herbicidal effect grade (velvetleaf; [5]): 3 (Herbicidal rate of 40% or more and less than 70%)
herbicidal effect on rice flat sedge (E) (rice flat sedge): 2 (Herbicidal rate of 20% or more and less than 40%)
O: lambsquarters, herbicidal effect grade (lambsquarters; [5]): 2 (Herbicidal rate of 20% or more and less than 40%)
F: southern crabgrass, herbicidal effect grade (southern crabgrass; [5]): 4 (Herbicidal rate of 70% or more and less than 90%)
I: wild oat, herbicidal effect grade (wild oat; [5]): 4 (Herbicidal rate of 70% or more and less than 90%)
K: Italian ryegrass, herbicidal effect grade (Italian ryegrass; [5]): 3 (Herbicidal rate of 40% or more and less than 70%)
L: windgrass, herbicidal effect grade (windgrass; [5]): 2 (Herbicidal rate of 20% or more and less than 40%)
N: redroot pigweed, herbicidal effect grade (redroot pigweed; [5]): 4 (Herbicidal rate of 70% or more and less than 90%)
Herbicidal effect, A: late watergrass (late watergrass): 2 (Herbicidal rate of 20% or more and less than 40%)
herbicidal effect on Chinese sprangletop (D) (Chinese sprangletop): 3 (Herbicidal rate of 40% or more and less than 70%)
R: persian speedwell, herbicidal effect grade (persian speedwell; [5]): 4 (Herbicidal rate of 70% or more and less than 90%)
P: chickweed, herbicidal effect grade (chickweed; [5]): 4 (Herbicidal rate of 70% or more and less than 90%)
G: green foxtail, herbicidal effect grade (green foxtail; [5]): 5 (Herbicidal rate of 90% or more (almost completely withered))

CCCC(=O)Oc1c(C)nn(C)c(=O)c1-c1c(-c2ccccc2C)sc2c(Cl)cccc12 [4-061]
herbicidal effect on J: blackgrass (evaluation grade 0-5) (blackgrass; [6]): 0 (Herbicidal rate of 5% or less (almost no effect))
herbicidal effect on barnyard grass (H) (barnyard grass [1]): 3 (Herbicidal rate of 40% or more and less than 70%)
Herbicidal effect, B: Japanese bulrush (Japanese bulrush): 0 (Herbicidal rate of 5% or less (almost no effect))
herbicidal effect on H: barnyard grass (evaluation grade 0-5) (barnyard grass [2]; [6]): 0 (Herbicidal rate of 5% or less (almost no effect))
Herbicidal effect, C: oval-leafed pondweed (oval-leafed pondweed): 0 (Herbicidal rate of 5% or less (almost no effect))
herbicidal effect on M: velvetleaf (evaluation grade 0-5) (velvetleaf; [6]): 0 (Herbicidal rate of 5% or less (almost no effect))
herbicidal effect on rice flat sedge (E) (rice flat sedge): 4 (Herbicidal rate of 70% or more and less than 90%)
herbicidal effect on O: lambsquarters (evaluation grade 0-5) (lambsquarters; [6]): 0 (Herbicidal rate of 5% or less (almost no effect))
herbicidal effect on F: southern crabgrass (evaluation grade 0-5) (southern crabgrass; [6]): 0 (Herbicidal rate of 5% or less (almost no effect))
herbicidal effect on I: wild oat (evaluation grade 0-5) (wild oat; [6]): 0 (Herbicidal rate of 5% or less (almost no effect))
herbicidal effect on K: Italian ryegrass (evaluation grade 0-5) (Italian ryegrass; [6]): 0 (Herbicidal rate of 5% or less (almost no effect))
herbicidal effect on L: windgrass (evaluation grade 0-5) (windgrass; [6]): 0 (Herbicidal rate of 5% or less (almost no effect))
herbicidal effect on N: redroot pigweed (evaluation grade 0-5) (redroot pigweed; [6]): 2 (Herbicidal rate of 20% or more and less than 40%)
Herbicidal effect, A: late watergrass (late watergrass): 3 (Herbicidal rate of 40% or more and less than 70%)
herbicidal effect on Chinese sprangletop (D) (Chinese sprangletop): 3 (Herbicidal rate of 40% or more and less than 70%)
herbicidal effect on R: persian speedwell (evaluation grade 0-5) (persian speedwell; [6]): 2 (Herbicidal rate of 20% or more and less than 40%)
herbicidal effect on P: chickweed (evaluation grade 0-5) (chickweed; [6]): 3 (Herbicidal rate of 40% or more and less than 70%)
herbicidal effect on G: green foxtail (evaluation grade 0-5) (green foxtail; [6]): 0 (Herbicidal rate of 5% or less (almost no effect))

CCc1ccccc1-c1sc2c(Cl)cccc2c1-c1c(O)c(C)nn(C)c1=O [4-062]
herbicidal effect on J: blackgrass (evaluation grade 0-5) (blackgrass; [6]): 0 (Herbicidal rate of 5% or less (almost no effect))
herbicidal effect on barnyard grass (H) (barnyard grass [1]): 4 (Herbicidal rate of 70% or more and less than 90%)
Herbicidal effect, B: Japanese bulrush (Japanese bulrush): 2 (Herbicidal rate of 20% or more and less than 40%)
herbicidal effect on H: barnyard grass (evaluation grade 0-5) (barnyard grass [2]; [6]): 1 (Herbicidal rate of 5% or more and less than 20%)
Herbicidal effect, C: oval-leafed pondweed (oval-leafed pondweed): 0 (Herbicidal rate of 5% or less (almost no effect))
herbicidal effect on M: velvetleaf (evaluation grade 0-5) (velvetleaf; [6]): 2 (Herbicidal rate of 20% or more and less than 40%)
herbicidal effect on rice flat sedge (E) (rice flat sedge): 3 (Herbicidal rate of 40% or more and less than 70%)
herbicidal effect on O: lambsquarters (evaluation grade 0-5) (lambsquarters; [6]): 0 (Herbicidal rate of 5% or less (almost no effect))
herbicidal effect on F: southern crabgrass (evaluation grade 0-5) (southern crabgrass; [6]): 1 (Herbicidal rate of 5% or more and less than 20%)
herbicidal effect on I: wild oat (evaluation grade 0-5) (wild oat; [6]): 0 (Herbicidal rate of 5% or less (almost no effect))
herbicidal effect on K: Italian ryegrass (evaluation grade 0-5) (Italian ryegrass; [6]): 0 (Herbicidal rate of 5% or less (almost no effect))
herbicidal effect on L: windgrass (evaluation grade 0-5) (windgrass; [6]): 0 (Herbicidal rate of 5% or less (almost no effect))
herbicidal effect on N: redroot pigweed (evaluation grade 0-5) (redroot pigweed; [6]): 3 (Herbicidal rate of 40% or more and less than 70%)
Herbicidal effect, A: late watergrass (late watergrass): 0 (Herbicidal rate of 5% or less (almost no effect))
herbicidal effect on Chinese sprangletop (D) (Chinese sprangletop): 4 (Herbicidal rate of 70% or more and less than 90%)
herbicidal effect on R: persian speedwell (evaluation grade 0-5) (persian speedwell; [6]): 3 (Herbicidal rate of 40% or more and less than 70%)
herbicidal effect on P: chickweed (evaluation grade 0-5) (chickweed; [6]): 3 (Herbicidal rate of 40% or more and less than 70%)
herbicidal effect on G: green foxtail (evaluation grade 0-5) (green foxtail; [6]): 3 (Herbicidal rate of 40% or more and less than 70%)
